Laboratory results taken from patent publication US8163909B2, “Substituted hydroxyethyl amine compounds as beta-secretase modulators and methods of use” (Amgen Inc., priority 2007, dated 2012).
Where two headings read alike, the source gives them in different places.

Experiments:
[1] = target: Beta Secretase enzyme (BACE) (Homo sapiens, UniProt P56817); assay: In vitro enzymatic BACE FRET (fluorescence resonance energy transfer) assay; type: biochemical;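 also: fluorescence read after 1 h with 50 nM quenched peptide substrate spanning the BACE cleavage site, in pH 4.2 acetate buffer containing 10% DMSO and nonionic detergent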
Beta Secretase enzyme (BACE), sequence (P56817 46-501): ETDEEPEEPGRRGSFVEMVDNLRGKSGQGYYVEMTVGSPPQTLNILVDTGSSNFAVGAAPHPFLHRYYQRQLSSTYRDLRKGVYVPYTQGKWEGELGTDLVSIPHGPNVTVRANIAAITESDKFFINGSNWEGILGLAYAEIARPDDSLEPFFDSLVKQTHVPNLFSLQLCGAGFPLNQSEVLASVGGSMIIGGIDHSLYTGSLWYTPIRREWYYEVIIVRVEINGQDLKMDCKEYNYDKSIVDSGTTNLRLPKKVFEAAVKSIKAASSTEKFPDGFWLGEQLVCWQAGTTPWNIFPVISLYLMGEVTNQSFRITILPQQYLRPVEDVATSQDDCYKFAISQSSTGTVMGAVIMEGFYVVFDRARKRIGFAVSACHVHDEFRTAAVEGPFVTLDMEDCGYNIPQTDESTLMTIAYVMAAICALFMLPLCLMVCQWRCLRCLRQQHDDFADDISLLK

[2] = test system: Aβ40 in conditioned medium of cells stably expressing Amyloid Precursor Protein (APP); assay: In vitro BACE cell-based assay (Aβ40 in conditioned medium, sandwich ELISA); details: Homo sapiens;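 also: compounds added as a dilution series, secreted peptide quantified by europium time-resolved fluorescence readout, potency fitted from percent of control versus compound concentration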
[3] = Microsomal stability assay, rat liver microsomes;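 also: rat liver microsomes (0.25 mg/mL) with about 1 µM compound plus 1 mM NADPH, pH 7.4, 37 °C for 30 min, parent left measured by LC-MS/MS against 0 min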
[4] = Microsomal stability assay, human liver microsomes;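 also: pooled human liver microsomes at 0.25 mg/mL with 1 µM compound and NADPH at 37 °C, pH 7.4, for 30 min, unchanged parent quantified by LC-MS/MS against the 0 min sample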
CYP2D6 = CYP2D6 (Homo sapiens, UniProt P10635); assay: CYP2D6 inhibition assay (bufuralol, pooled human liver microsomes)
CYP2D6, sequence (P10635 whole entry): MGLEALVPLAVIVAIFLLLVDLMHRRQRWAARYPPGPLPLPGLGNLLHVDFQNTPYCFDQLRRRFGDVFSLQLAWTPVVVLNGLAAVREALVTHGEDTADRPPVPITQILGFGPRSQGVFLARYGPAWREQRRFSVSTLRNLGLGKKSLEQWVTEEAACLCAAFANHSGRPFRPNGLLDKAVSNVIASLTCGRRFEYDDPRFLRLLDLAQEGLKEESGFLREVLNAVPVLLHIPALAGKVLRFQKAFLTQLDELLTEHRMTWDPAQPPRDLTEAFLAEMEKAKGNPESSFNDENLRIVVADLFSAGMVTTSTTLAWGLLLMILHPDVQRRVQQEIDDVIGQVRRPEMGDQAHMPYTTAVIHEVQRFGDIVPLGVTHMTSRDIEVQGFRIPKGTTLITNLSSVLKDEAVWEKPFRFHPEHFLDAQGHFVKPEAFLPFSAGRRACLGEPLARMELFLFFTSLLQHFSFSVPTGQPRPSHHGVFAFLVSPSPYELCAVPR

[5] = BACE enzyme assay, IC50's in uM, read-out: BACE1 FRET assay
[6] = HEK293, cell-based assay, HEK cells, IC50's in uM, read-out: HEK cell assay
[7] = 2D6 IC50, CYP enzyme inhibition
[8] = read-out: BACE1 FRET assay (IC50)
[9] = HEK293, HEK cells, read-out: HEK cell assay (IC50)
[10] = HEK293, HEK cell-based assay, IC50's in uM, read-out: HEK cell assay
[11] = 2D6 IC50 (uM), CYP enzyme inhibition
[12] = BACE enzyme assay, read-out: BACE1 FRET assay

Structure (SMILES)	IC50 [1, 5] [µM]	IC50 [2, 6] [µM]	RLM ([3]; rat liver microsomal data) [µL/min/mg]	HLM ([4]; human liver microsomal data) [µL/min/mg]	IC50 [1, 8] [µM]	IC50 [2, 9] [µM]	RLM ([3]; rat liver microsomes) [µL/min/mg]	HLM ([4]; human liver microsomes) [µL/min/mg]	IC50 (CYP2D6; 2D6 IC50, CYP2D6 inhibition) [µM]	other results
C#Cc1cccc(C[C@H](NC(=O)[C@@H](C)OC)[C@H](O)CN[C@H]2CC3(CCC3)Oc3ncc(CC(C)(C)C)cc32)c1F [compound 912]	0.013	1.19	60	35						IC50 (CYP2D6; [7]): 6.3 µM
COCC(=O)N[C@@H](Cc1cc(F)cc(-c2nccs2)c1)[C@H](O)CN[C@]1(C)CC2(CCC2)Oc2ncc(CC(C)(C)C)cc21 [compound 867]	1.21	1.15	119	66						IC50 (CYP2D6; [7]): 0.7 µM
COCC(=O)N[C@@H](Cc1ccccc1)[C@H](O)CN[C@H]1CC2(CCC2)Oc2c(-c3ccncc3)cc(CC(C)C)cc21 [compound 603]					0.01	0.01	172	76	2.7	
CO[C@H](C)C(=O)N[C@@H](Cc1cc(F)cc(F)c1)[C@H](O)CN[C@H]1CC2(CCC2)Oc2c(-c3ccncc3)cc(CC(C)C)cc21 [compound 587]					0.012	0.006	73	29	2.1	
C#Cc1cccc(C[C@H](NC(=O)[C@H]2CCCO2)[C@H](O)CN[C@H]2CC3(CCC3)Oc3ncc(CC(C)(C)C)cc32)c1 [compound 896]	0.006	0.009	73	45						IC50 (CYP2D6; [7]): 3.8 µM
COCC(=O)N[C@@H](Cc1ccc(F)cc1)[C@H](O)CN[C@H]1CC2(CCC2)Oc2c(-c3ccncc3)cc(CC(C)C)cc21 [compound 605]					0.014	0.016	71	73	2.3	
CC(=O)N[C@@H](Cc1cccc(F)c1)[C@H](O)CN[C@H]1CC2(CCC2)Oc2c1cc(Cl)cc2-n1ccnc1 [compound 594]					0.158	0.077	61	44	0.3	
COCC(=O)N[C@@H](Cc1cccc(C#N)c1)[C@H](O)CN[C@H]1CC2(CCC2)Oc2c(-c3ccncc3)cc(CC(C)C)cc21 [compound 619]					0.012	0.006	85	35	1.5	
CO[C@H](C)C(=O)N[C@@H](Cc1cc(F)cc(F)c1)[C@H](O)CN[C@H]1CC2(CCC2)Oc2c1cc(CC(C)(C)C)nc2-c1ccncc1 [compound 583]					0.015	0.03	80	14	1.2	
CCO[C@H](C)C(=O)N[C@@H](Cc1ccc2c(c1)OCO2)[C@H](O)CN[C@H]1CC2(CCC2)Oc2ncc(CC(C)(C)C)cc21 [compound 887]	0.102	0.052	136	37						
COCC(=O)N[C@@H](Cc1cccc(C(C)=O)c1)[C@H](O)CN[C@H]1CC2(CCC2)Oc2ncc(CC(C)(C)C)cc21 [compound 872]	0.007	0.009	278	382						IC50 (CYP2D6; [7]): 5.7 µM
CO[C@H](C)C(=O)N[C@@H](Cc1cccc(C#N)c1)[C@H](O)CN[C@H]1CC2(CCC2)Oc2c(-c3ccncc3)cc(CC(C)C)cc21 [compound 620]					0.01	0.005	105	48	1.9	
COCC(=O)N[C@@H](Cc1cccc(F)c1)[C@H](O)CN[C@H]1CC2(CCC2)Oc2c(-c3ccncc3)cc(CC(C)C)cc21 [compound 607]					0.01	0.007	72	65	1.7	
C#Cc1cccc(C[C@H](NC(=O)[C@@H]2CCCO2)[C@H](O)CN[C@H]2CC3(CCC3)Oc3ncc(CC(C)(C)C)cc32)c1F [compound 913]	0.021	0.063	76	41						IC50 (CYP2D6; [7]): 7.1 µM
COCC(=O)N[C@@H](Cc1ccccc1)[C@H](O)CN[C@H]1CC2(CCC2)Oc2c(-c3cncn3C)cc(CC(C)C)cc21 [compound 635]					0.074	0.01	420	44	4.1	
CC(C)(C)Cc1cnc2c(c1)[C@@H](NC[C@@H](O)[C@H](Cc1ccc(F)cc1)NC(=O)[C@@H]1CN(Cc3cncs3)CCO1)CC1(CCC1)O2 [compound 788]	0.016		157	267						IC50 [2, 10]: 0.013 µM; IC50 (CYP2D6; [11]): 0.6 µM
C#Cc1cc(C[C@H](NC(=O)CC)[C@H](O)CN[C@H]2CC3(CCC3)Oc3ncc(CC(C)(C)C)cc32)ccc1F [compound 848]	0.005	0.019	60	36						IC50 (CYP2D6; [7]): 0.9 µM
COCC(=O)N[C@@H](Cc1ccc2c(c1)OCO2)[C@H](O)CN[C@H]1CC2(CCC2)Oc2ccc(C[C@@H](C)F)cc21 [compound 558]			362	167						IC50 [1, 12]: 0.25 µM; IC50 ([2]; HEK293, HEK cells, read-out: HEK cell assay): 0.336 µM
COCC(=O)N[C@@H](Cc1cc(F)cc(F)c1)[C@H](O)CN[C@H]1CC2(CCC2)Oc2c1cc(CC(C)C)nc2-c1ccncc1 [compound 682]							113	34		IC50 ([1]; BACE enzyme assay IC50, read-out: BACE1 FRET assay): 0.009 µM; IC50 ([2]; HEK293, HEK cell-based assay IC50, read-out: HEK cell assay): 0.011 µM; IC50 (CYP2D6; 2D6 IC50 (uM), CYP2D6 inhibition): 1.1 µM
CC(C)(C)Cc1cnc2c(c1)[C@@H](NC[C@@H](O)[C@H](Cc1ccc3c(c1)OCO3)NC(=O)C(C)(C)C)CC1(CCC1)O2 [compound 882]	6.25	2.58	103	40						IC50 (CYP2D6; [7]): 0.5 µM
C#Cc1cc(F)cc(C[C@H](NC(=O)[C@@H](C)OC)[C@H](O)CN[C@H]2CC3(CCC3)Oc3ncc(CC(C)(C)C)cc32)c1 [Example 834, (2R)-N-((1S,2R)-3-(((4′S)-6′-(2,2-dimethylpropyl)-3′,4′-dihydrospiro[cyclobutane-1,2′-pyrano[2,3-b]pyridin]-4′-yl)amino)-1-(3-ethynyl-5-fluorobenzyl)-2-hydroxypropyl)-2-methoxypropanamide]	0.005		98	37						IC50 [2, 10]: 0.011 µM; IC50 (CYP2D6; [11]): 2.5 µM
CO[C@H](C)C(=O)N[C@@H](Cc1ccccc1)[C@H](O)CN[C@H]1CC2(CCC2)Oc2c(-c3ccncc3)cc(CC(C)C)cc21 [compound 604]					0.018	0.013	215	89	2.7	
COCC(=O)N[C@@H](Cc1cc(F)cc(F)c1)[C@H](O)CN[C@H]1CC2(CCC2)Oc2c1cc(Cl)cc2-n1ccnc1 [compound 581]					0.081	0.075	124	91		
CO[C@@H](C)C(=O)N[C@@H](Cc1ccc2c(c1)OCO2)[C@H](O)CN[C@H]1CC2(CCC2)Oc2c1cc(CC(C)(C)C)nc2N(C)C [compound 443]			232	190						IC50 ([1]; Table 2, read-out: BACE1 FRET assay): 0.065 µM; IC50 ([2]; HEK293, Table 2, HEK cells, read-out: HEK cell assay): 0.175 µM
COCC(=O)N[C@@H](Cc1cccc(F)c1)[C@H](O)CN[C@H]1CC2(CCC2)Oc2c1cc(Cl)cc2-n1ccnc1 [compound 553]			86	47						IC50 [1, 12]: 0.146 µM
